Reference: patent publication US4327222A, “3,4-Diarylisoxazol-5-acetic acids and process for making same” (priority 1979, dated 1982)
“Also recorded” adds a separate entry of the source. Read-outs that look alike come from different tables or passages of the source.

Experiments:
rats = assay: in vivo; type: in vivo
Experimental: (§1) Acute toxicities are determined in rats and in mice and the LD50 's are calculated according to the method of Litchfield and Wilcoxon, J.Pharmacol.Exp. Therap.

[1] = tested on: carrageenin-induced paw edema; assay: Anti-inflammatory: carrageenin-induced paw edema test in the rat (modified Winter et al.); type: in vivo; settings: for ED50: po, read-out: ED50 p.o. Anti-inflammatory (Carrageenin)
in vivo [2] = settings: mouse, po, mice, read-out: Acute Toxicity (LD50) p.o.
Experimental: (§2) 138, 405 (1962), both in the rat. […] Acute toxicities are determined in rats and in mice and the LD50 's are calculated according to the method of Litchfield and Wilcoxon, J.Pharmacol.Exp. Therap. 96, 99 (1949).

yeast-induced fever = assay: Anti-pyretic: yeast-induced fever test in rats; type: in vivo; settings: Rattus norvegicus, po, read-out: ED50 p.o. Anti-Pyretic (Yeast)
[3] = tested on: phenylquinone-induced muscular writhing; assay: Analgesic: phenylquinone-induced muscular writhing test in mice (modified Siegmund et al.); type: in vivo; settings: for ED50: Mus musculus, po, read-out: ED50 p.o. Analgesic (Phenylquinone)
cotton pellet granuloma = assay: Antigranuloma: cotton pellet granuloma test in the rat; type: in vivo
Experimental: as §2

in vivo [4] = type: in vivo; settings: rat, in vivo, po; rats; read-out: Acute Toxicity (LD50) p.o.
Experimental: as §1

Row | Compound | ED50 ([1]; rat, carrageenin paw edema) [mg/kg] | ED50 (yeast-induced fever; rats, yeast-induced fever) [mg/kg] | ED50 ([3]; mice, phenylquinone writhing) [mg/kg] | other results
1 | COc1ccc(-c2noc(CC(=O)O)c2-c2ccc(OC)cc2)cc1 [3,4,-Di(p-methoxyphenyl)isoxazol-5-acetic Acid] |  |  |  | therapeutic index LD50/anti-inflammatory ED50 (in words) (rats; LD50 / anti-inflammatory ED50): favourable therapeutic index; order of toxicity (in words) (rats; rats and mice): low order of toxicity; ED50 ([1]; Rattus norvegicus): 25 to 40 mg/kg; anti-inflammatory activity (in words) ([1]; rat, listed as Example 4): remarkable anti-inflammatory and analgesic activities; also recorded: well within the range of the same activities shown for a number of established anti-inflammatory drugs and are markedly superior to the activities of known 3-arylisoxazol-5-acetic acids; LD50 (in vivo [2]): 1000 mg/kg; ED50 (yeast-induced fever): > 120 mg/kg; ED50 [3]: 1.8 mg/kg; analgesic activity (in words) ([3]; mice, listed as Example 4): remarkable anti-inflammatory and analgesic activities; also recorded: well within the range of the same activities shown for a number of established anti-inflammatory drugs and are markedly superior to the activities of known 3-arylisoxazol-5-acetic acids; activity in antigranuloma test (in words) (cotton pellet granuloma): active in antigranuloma test
2 | O=C(O)Cc1onc(-c2ccccc2)c1-c1ccccc1 [3,4-Diphenylisoxazol-5-acetic Acid] | 120 | 120 |  | LD50 (in vivo [2]): 670 mg/kg
3 | COc1ccc(-c2cc(CC(=O)O)on2)cc1 [3-(p-methoxyphenyl)isoxazol-5-acetic acid] | > 135 | > 120 | 60 | 
4 | O=C(O)Cc1cc(-c2ccccc2)no1 [3-Phenylisoxazol-5-acetic Acid, 3-phenylisoxazol-5-acetic acid] | 70 to 80 | > 135 | 60 to 90 | Acute Toxicity p.o. (dose with 100% mortality) (rats; p.o., rats, 100% mortality): 1500 mg/kg
5 | CC(=O)Oc1ccccc1C(=O)O [Aspirin] | 60 to 90 |  | 70 to 100 | LD50 (in vivo [4]): 1740 mg/kg
6 | CC(C)Cc1ccc(C(C)C(=O)O)cc1 (centres unmarked) [Ibuprofen] | 15 to 30 | 15 | 15 to 25 | 
7 | COc1ccc2c(c1)c(CC(=O)O)c(C)n2C(=O)c1ccc(Cl)cc1 [Indomethacin] |  |  |  | LD50 (in vivo [4]): 27 mg/kg; ED50 ([1]; Rattus norvegicus): 7 to 9 mg/kg; ED50 (yeast-induced fever): 3 to 5 mg/kg; ED50 [3]: < 1 mg/kg
8 | Cc1cccc(Nc2ccccc2C(=O)O)c1C [Mefenamic Acid] | 45 to 55 | 7.5 to 10 | 7.5 to 10 | 
9 | COc1ccc2cc([C@H](C)C(=O)O)ccc2c1 [Naproxen] | 10 to 12 | 15 to 20 | 7.5 to 10 | 
10 | COc1ccc(-c2noc(C(OC)C(=O)O)c2-c2ccc(OC)cc2)cc1 (stereo not drawn) [Sodium 3,4-Di(p-methoxyphenyl)isoxazol-5α-methoxyacetate] | 120 | > 120 | 60 | 
11 | CC1=C(CC(=O)O)c2cc(F)ccc2/C1=C\c1ccc([S+](C)[O-])cc1 (centres unmarked) [Sulindac] | 20 to 30 | 7.5 to 10 | 7.5 to 10 | 
